Patent US8551978B2 (Theravance, Inc., priority 2009, dated 2013)
Counter-ions that a name gives are not always drawn. Like-named read-outs stand apart in the source and are kept apart here.

What was measured:
[1] = target: hM3 muscarinic receptor (Homo sapiens (Human), UniProt P20309); experiment: Radioligand binding assay for muscarinic receptors ([3H]-NMS displacement, CHO cell membranes)
Description: The cells were grown in a 5% CO2, 37° C. incubator and lifted with 2 mM EDTA in dPBS. Cells were collected by 5 minute centrifugation at 650×g, and cell pellets were either stored frozen at −80° C. or membranes were prepared immediately for use. For membrane preparation, cell pellets were resuspended in lysis buffer and homogenized with a Polytron PT-2100 tissue disrupter (Kinematica AG; 20 seconds×2 bursts). Crude membranes were centrifuged at 40,000×g for 15 minutes at 4° C. The membrane pellet was then resuspended with re-suspension buffer and homogenized again with the Polytron tissue disrupter. The protein concentration of the membrane suspension was determined by the method described in Lowry et al., 1951, […], 193, 265. All membranes were stored frozen in aliquots at −80° C. or used immediately. […] The membranes were briefly homogenized using a Polytron tissue disruptor (10 seconds) prior to assay plate addition. […] The test compounds were initially dissolved to a concentration of 400 μM in dilution buffer and then serially diluted 5× with dilution buffer to final concentrations ranging from 10 μM to […]. The order of addition and volumes added to the assay plates were as follows: 25 μL radioligand, 25 μL diluted test compound, and 50 μL membranes. Assay plates were incubated for 6 hours at 37° C. […] Filter plates were rinsed three times with wash buffer (10 mM HEPES) to remove unbound radioactivity. The plates were then air-dried and 50 μL Microscint-20 liquid scintillation fluid (PerkinElmer, Inc.) were added to each well. The plates were then counted in a PerkinElmer Topcount liquid scintillation counter (PerkinElmer, Inc.). Binding data were analyzed by nonlinear regression analysis with the GraphPad Prism Software package (GraphPad Software, Inc., San Diego, Calif.) using the one-site competition model. […] These summary statistics were then converted back to K; values for data reporting.

[2] = test system: MCh-induced bronchoconstriction; experiment: Einthoven assay: bronchoprotection against methacholine (MCh)-induced bronchoconstriction; assay type: in vivo, rat; details: for inhibition in vivo at 0.1 mg: inhaled or nasal, read-out: Broncho. at 24 h
Description: This assay measures the ability of a test compound to provide bronchoprotection against methacholine (MCh)-induced bronchoconstriction in a rat. Male Sprague-Dawley rats (Harlan, Indianapolis, Ind.), weighing between 200 g and 350 g, were used for all studies. Test compound or vehicle (sterile deionized water) were dosed by inhalation (1H) over a 10 min period in a pie shaped inhalation chamber (R+S Molds, San Carlos, Calif.) using 5 mL of dosing solution. […] Rats were dosed with 100 μg of test compound unless otherwise indicated. At predetermined time points, rats were anesthetized with an intraperitoneal (IP) injection of 120 mg/kg inactin (thiobutabarbital). A supplemental dose (40 mg/kg, IP) was administered if the animal responded to physical stimuli (e.g. toe pinch). The surgical site was shaved and a 1-2 cm midline incision of the ventral aspect of the neck was made. The jugular vein was isolated and cannulated with a saline-filled polyethylene catheter (PE-50) to allow IV infusion of MCh. Trachea was dissected free and cannulated with a 14G needle (#NE-014, Small Parts, Miami Lakes, Fla.). After placement of the tracheal cannula, each rat was ventilated using a respirator (Model 683, Harvard Apparatus, Inc., MA) set at a stroke volume of 1 mL/100 g body weight (but not exceeding 2.5 mL volume) and a rate of 90 strokes per minute. A T-connector was placed along the respirator expiratory tubing to allow for measurement of changes in ventilation pressure (VP) using a Biopac transducer that was connected to a Biopac […]) pre-amplifier. Body temperature was maintained at 37° C. using a heating pad. Changes in VP were recorded using the Acknowledge Data Collection Software (Santa Barbara, Calif.). Baseline values were collected for at least 2.5 min. Rats were then challenged with non-cumulative intravenous (IV) infusions of 40 and 80 μg/kg MCh. MCh was infused intravenously for 2.5 minutes from a syringe pump (sp210iw, World Precision Instruments, Inc., Sarasota, Fla.) at a rate of 2 mL/kg/min, with a 2 minute interval between the two doses of MCh. Changes in ventilation pressure (cm H2O) in treated animals are expressed as % inhibition of MCh response relative to control animals. Other bronchoconstrictors, such as histamine and acetylcholine, can be used in place of MCh in this assay. Additionally, guinea pigs can be used instead of rats. […] Inhibition greater than or equal to 30 percent at 24 h is indicative of a long duration of action.

[3] = target: hβ2 adrenergic receptor (Homo sapiens (Human), UniProt P07550); experiment: Assay for determining adrenergic receptor agonist potency (cAMP Flashplate, HEK-293 cells); assay type: cell-based; details: data rounded to nearest 1 nM
Description: The cell monolayer was lifted with 2 mM EDTA in PBS. Cells were pelleted by centrifugation at 1,000 rpm, and cell pellets were either stored frozen at −80° C. or membranes were prepared immediately for use. cAMP assays were performed in a radioimmunoassay format using the Flashplate Adenylyl Cyclase Activation Assay System with [^125I]-cAMP (NEN SMP004, PerkinElmer Life Sciences Inc., Boston, Mass.), according to the manufacturers instructions. […] Cells were rinsed with PBS and detached in dPBS (Dulbecco's Phosphate Buffered Saline, without CaCl2 and MgCl2) containing 2 mM EDTA or Trypsin-EDTA solution (0.05% trypsin/0.53 mM EDTA). After counting cells in Coulter cell counter, cells were pelleted by centrifugation at 1,000 rpm and re-suspended in stimulation buffer containing TBMX (PerkinElmer Kit) pre-warmed to room temperature to a concentration of 1.6×10^6 to 2.8×10^6 cells/mL. About 40,000 to 80,000 cells per well were used in this assay. […] Reactions were incubated for 10 min at 37° C. and stopped by adding 100 μL of cold detection buffer containing [^125I]-cAMP (NEN SMP004, PerkinElmer Life Sciences, Boston, Mass.). […] Data were analyzed by nonlinear regression analysis with the GraphPad Prism Software package (GraphPad Software, Inc., San Diego, Calif.) with the sigmoidal equation. The Cheng-Prusoff equation (Cheng Y, and Prusoff W H., Biochemical Pharmacology, 1973, 22, 23, 3099-108) was used to calculate the EC50 values.

[4] = hM3 Muscarinic Receptor Binding, data rounded to nearest 0.1 nM
[5] = rat, 100 μg by inhalation, 24 h after administration

hβ2 adrenergic receptor, sequence (P07550 whole entry): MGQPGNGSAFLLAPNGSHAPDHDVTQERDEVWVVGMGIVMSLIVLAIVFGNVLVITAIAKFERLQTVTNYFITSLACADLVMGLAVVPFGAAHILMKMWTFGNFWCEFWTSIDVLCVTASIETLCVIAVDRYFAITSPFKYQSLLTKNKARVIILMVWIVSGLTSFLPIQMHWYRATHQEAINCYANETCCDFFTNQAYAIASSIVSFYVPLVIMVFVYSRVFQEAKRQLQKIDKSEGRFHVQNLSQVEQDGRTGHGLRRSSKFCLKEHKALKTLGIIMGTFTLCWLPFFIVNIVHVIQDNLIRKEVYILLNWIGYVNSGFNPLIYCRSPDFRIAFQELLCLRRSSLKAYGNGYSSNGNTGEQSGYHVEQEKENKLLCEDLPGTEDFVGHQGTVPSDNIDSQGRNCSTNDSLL
hM3 muscarinic receptor, sequence (P20309 whole entry): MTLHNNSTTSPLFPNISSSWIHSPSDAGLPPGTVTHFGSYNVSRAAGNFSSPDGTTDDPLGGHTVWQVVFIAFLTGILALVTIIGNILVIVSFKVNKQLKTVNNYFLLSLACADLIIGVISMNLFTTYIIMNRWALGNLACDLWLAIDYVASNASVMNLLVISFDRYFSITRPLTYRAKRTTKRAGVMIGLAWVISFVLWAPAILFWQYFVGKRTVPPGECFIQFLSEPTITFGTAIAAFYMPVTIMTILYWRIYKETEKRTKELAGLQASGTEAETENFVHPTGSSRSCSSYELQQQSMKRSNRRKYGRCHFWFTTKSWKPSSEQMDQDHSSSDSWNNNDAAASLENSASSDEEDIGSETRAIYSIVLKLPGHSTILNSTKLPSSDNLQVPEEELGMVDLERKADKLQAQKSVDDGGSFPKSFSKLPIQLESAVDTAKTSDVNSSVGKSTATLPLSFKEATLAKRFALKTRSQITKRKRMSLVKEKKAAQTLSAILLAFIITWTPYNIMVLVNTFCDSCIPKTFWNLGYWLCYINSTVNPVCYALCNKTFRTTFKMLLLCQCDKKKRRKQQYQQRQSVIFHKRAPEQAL

Row | Compound | Ki [1, 4] [nM] | inhibition in vivo at 0.1 mg [2, 5] [%] | EC50 [3] [nM] | Ki [1] [nM] | inhibition in vivo at 0.1 mg ([2]; Rattus norvegicus, 24 h) [%] | Broncho. at 24 h [2, 5]
1 | COc1ccc(CC(=O)NCc2ccc(N(C)C(=O)CCN3CCC(OC(=O)Nc4ccccc4-c4ccccc4)CC3)cc2)cc1C[C@H](C)NC[C@H](O)c1ccc(O)c2[nH]c(=O)ccc12 [Compound I-83] | 0.2 | > 30 | 2 | – | – | –
2 | CC(Cc1ccc(CNC(=O)Cc2ccc(N(C)C(=O)CCN3CCC(OC(=O)Nc4ccccc4-c4ccccc4)CC3)cc2)cc1)NC[C@H](O)c1ccc(O)c2[nH]c(=O)ccc12 (stereo partly shown) [Compound I-67] | – | > 30 | 1 | 0.1 | – | –
3 | COc1cc(NC(=O)CCCCN(C)C(=O)CCN2CCC(OC(=O)Nc3ccccc3-c3ccccc3)CC2)c(Cl)cc1CNC[C@H](O)c1ccc(O)c2[nH]c(=O)ccc12 [Compound I-19] | – | > 30 | 1 | 0.1 | – | –
4 | C[C@@H](Cc1ccc(CNC(=O)c2cccc(N(C)C(=O)CCN3CCC(OC(=O)Nc4ccccc4-c4ccccc4)CC3)c2)cc1)NC[C@H](O)c1ccc(O)c2[nH]c(=O)ccc12 [Compound I-49] | – | > 30 | 1 | 0.1 | – | –
5 | CN(CCCC(=O)Nc1cccc(CCNC[C@H](O)c2ccc(O)c3[nH]c(=O)ccc23)c1)C(=O)CCN1CCC(OC(=O)Nc2ccccc2-c2ccccc2)CC1 [Compound I-7, Biphenyl-2-ylcarbamic Acid 1-(2-{[3-(3-{2-[(R)-2-Hydroxy-2-(8-hydroxy-2-oxo-1,2-dihydroquinolin-5-yl)ethylamino]ethyl}phenylcarbamoyl)-propyl]methylcarbamoyl}ethyl)piperidin-4-yl Ester Ditrifluoroacetic Acid Salt] | – | – | 1 | 0.1 | > 30 | –
6 | CC(Cc1cccc(CC(=O)Nc2cccc(N(C)C(=O)CCN3CCC(OC(=O)Nc4ccccc4-c4ccccc4)CC3)c2)c1)NC[C@H](O)c1ccc(O)c2[nH]c(=O)ccc12 (stereo partly shown) [Compound I-52] | – | – | 1 | 0.2 | – | No
7 | COc1cc(NC(=O)CCCN(C)C(=O)CCN2CCC(OC(=O)Nc3ccccc3-c3ccccc3)CC2)c(Cl)cc1CNC[C@H](O)c1ccc(O)c2[nH]c(=O)ccc12 [Compound I-6] | 0.1 | > 30 | 1 | – | – | –
8 | CC(Cc1ccc(CNC(=O)c2cccc(N(C)C(=O)CCN3CCC(OC(=O)Nc4ccccc4-c4ccccc4)CC3)c2)cc1)NC[C@H](O)c1ccc(O)c2[nH]c(=O)ccc12 (stereo partly shown) [Compound I-46] | – | > 30 | 1 | 0.1 | – | –
9 | CC(Cc1cccc(NC(=O)c2cccc(N(C)C(=O)CCN3CCC(OC(=O)Nc4ccccc4-c4ccccc4)CC3)c2)c1)NC[C@H](O)c1ccc(O)c2[nH]c(=O)ccc12 (stereo partly shown) [Compound I-36] | – | > 30 | 1 | 0.2 | – | –
10 | C[C@H](Cc1cccc(CC(=O)NCc2ccc(N(C)C(=O)CCN3CCC(OC(=O)Nc4ccccc4-c4ccccc4)CC3)cc2)c1)NC[C@H](O)c1ccc(O)c2[nH]c(=O)ccc12 [Compound I-78] | – | > 30 | 1 | 0.3 | – | –
11 | CC(Cc1ccc(CC(=O)Nc2cccc(N(C)C(=O)CCN3CCC(OC(=O)Nc4ccccc4-c4ccccc4)CC3)c2)cc1)NC[C@H](O)c1ccc(O)c2[nH]c(=O)ccc12 (stereo partly shown) [Compound I-53] | – | – | 1 | 0.1 | – | No
12 | CN(C(=O)CCN1CCC(OC(=O)Nc2ccccc2-c2ccccc2)CC1)c1ccc(CC(=O)NCc2ccc(CCNC[C@H](O)c3ccc(O)c4[nH]c(=O)ccc34)cc2)cc1 [Compound I-64] | 0.3 | – | 1 | – | – | No
13 | Cc1cc(CNC[C@H](O)c2ccc(O)c3[nH]c(=O)ccc23)ccc1NC(=O)CCCN(C)C(=O)CCN1CCC(OC(=O)Nc2ccccc2-c2ccccc2)CC1 [Compound I-2] | – | – | 1 | 0.1 | – | No
14 | COc1cc(NC(=O)CCCCN(C)C(=O)CCN2CCC(OC(=O)Nc3ccccc3-c3ccccc3)CC2)ccc1CNC[C@H](O)c1ccc(O)c2[nH]c(=O)ccc12 [Compound I-17] | – | > 30 | 1 | 0.1 | – | –
15 | C[C@@H](Cc1cccc(NC(=O)c2cccc(N(C)C(=O)CCN3CCC(OC(=O)Nc4ccccc4-c4ccccc4)CC3)c2)c1)NC[C@H](O)c1ccc(O)c2[nH]c(=O)ccc12 [Compound I-39] | – | – | 1 | 0.2 | – | No
16 | CC(Cc1ccc(F)c(CC(=O)NCc2ccc(N(C)C(=O)CCN3CCC(OC(=O)Nc4ccccc4-c4ccccc4)CC3)cc2)c1)NC[C@H](O)c1ccc(O)c2[nH]c(=O)ccc12 (stereo partly shown) [Compound I-95] | – | > 30 | 1 | 0.2 | – | –
17 | Cc1ccc(C(=O)Nc2cccc(CCNC[C@H](O)c3ccc(O)c4[nH]c(=O)ccc34)c2)cc1N(C)C(=O)CCN1CCC(OC(=O)Nc2ccccc2-c2ccccc2)CC1 [Compound I-33] | – | – | 1 | 0.2 | – | No
18 | CC(Cc1cccc(CCNC(=O)Cc2ccc(N(C)C(=O)CCN3CCC(OC(=O)Nc4ccccc4-c4ccccc4)CC3)cc2)c1)NC[C@H](O)c1ccc(O)c2[nH]c(=O)ccc12 (stereo partly shown) [Compound I-85] | – | > 30 | – | – | – | –
19 | C[C@@H](Cc1ccc(NC(=O)c2cccc(N(C)C(=O)CCN3CCC(OC(=O)Nc4ccccc4-c4ccccc4)CC3)c2)cc1)NC[C@H](O)c1ccc(O)c2[nH]c(=O)ccc12 [Compound I-43] | – | > 30 | – | – | – | –
20 | CN(C(=O)CCN1CCC(OC(=O)Nc2ccccc2-c2ccccc2)CC1)c1cccc(CC(=O)Nc2cccc(CCNC[C@H](O)c3ccc(O)c4[nH]c(=O)ccc34)c2)c1 [Compound I-62] | – | > 30 | – | – | – | –
21 | CC(Cc1ccc(NC(=O)c2cccc(N(C)C(=O)CCN3CCC(OC(=O)Nc4ccccc4-c4ccccc4)CC3)c2)cc1)NC[C@H](O)c1ccc(O)c2[nH]c(=O)ccc12 (stereo partly shown) [Compound I-40] | – | > 30 | – | – | – | –
